According to US4098891A, “Certain s-triazines as lipogenesis inhibitors” (Shell Oil Company, priority 1977, dated 1978):

What was measured:
swine adipose tissue = test: Inhibition of lipogenesis (lipid synthesis from glucose-U-14C) in slices of swine adipose tissue in vitro; format: cell-based; details: Sus scrofa, 100 micrograms per milliliter, 2 hours at 37° C, 5% DMSO, read-out: Percent Inhibition of lipogenesis (lipid synthesis) compared to control
Source text: The manner in which they cause this effect is not known with certainty; it is believed that they interfere with the synthesis of fatty acids in the tissues. Their effectiveness for this purpose has been ascertained in one series of tests by immersing samples of swine adipose tissue in a liquid medium containing radioactive glucose and the test chemical, for a period of time, then isolating the lipid from the treated tissue and determining the up-take of the radioactive carbon by means of scintillation counting techniques. These tests were conducted in swine adipose tissue because in swine, the primary site of lipogenesis--i.e., fatty acid synthesis--appears to be adipose tissue.
Described in more detail, the tests were conducted according to the following general procedure:
150 Milligrams of slices of swine adipose tissue were incubated at 37° C for 2 hours with shaking in 3 milliliters of Krebs-Ringer bicarbonate solution containing one half the normal calcium ion concentration, 60 micromoles of glucose, 0.5 micro-Curie of glucose-U^14 C, 300 microunits of insulin, and 5% dimethyl sulfoxide (DMSO). The test compounds were added as suspensions or solutions in DMSO and were present at a concentration of 100 micrograms per milliliter of the incubation mixture.
The incubation was terminated by addition of 0.25 milliliter of 1 N sulfuric acid. The resulting mixture was extracted with a total of 25 milliliters of chloroform:methanol (2:1, v/v). The extracts were washed according to Folch et al. (J. Biol. Chem., 226, 497-509, (1957)), air dried, and counted in a liquid scintillation counter with 15 milliliters of counting fluid (two parts toluene containing 0.4% w/v New England Nuclear Omnifluor; 1 part Triton X-100. The tests were conducted in triplicate and were accompanied by control tests in which all ingredients,proportions and conditions were the same except that no test compound was included. From the data obtained were calculated the percent inhibition of lipid synthesis by the test compound in each case. The data obtained from the tests are set out in Table 1, as the percent inhibition of lipogenesis compared to the results obtained in the control tests wherein only the test compound was omitted.

swine = test: In vivo test in young, growing pigs fed Compound 1; lipogenesis in adipose tissue biopsy slices; details: in feed, approximately 50 mg/kg body weight per day for seven days
Protocol: The effect of compound 1 on inhibition of lipogenesis in swine was confirmed by an in vivo test in which Compound 1 was included in the feed given to young, growing pigs for seven days, at a dosage of approximately 50 milligrams of Compound 1 per kilogram of the pig's body weight per day. Adipose tissue biopsy samples were taken at days 0, 6, 7 and 13 (one week off the drug) and the effect of the test compound on lipogenesis was determined using tissue slices prepared from the biopsy samples, by the procedure used in the in vitro tests.

[1] = system: whole epididymal fat pads; test: Inhibition of incorporation of acetate-1-14C into long chain fatty acids in rat epididymal fat pads; format: cell-based, Sprague-Dawley rats; details: for inhibition at 100 µM: 1 h, 10^-4 M, 60 minutes, acetate-1-14C, read-out: Percent Inhibition of incorporation of acetate into long chain fatty acids
Protocol: The effect of Compounds 1, 15, 19, 20, 21, 22 and 33 on rats was determined by a modification of the method of D. D. Feller, J. Biol. Chem., 206, 171 (1954): whole epididymal fat pads from 110-150 gram Sprague-Dawley rats were incubated in 4 milliliters of Krebs-Ringer bicarbonate buffer for 30 minutes in an atmosphere of 95% O2 -5% CO2. At the end of the 30 minute period 1 milliliter of Krebs-Ringer bicarbonate buffer containing 8.2 micromoles of acetate (0.1 microcuries of acetate-1-^14 C), 55.0 micromoles of glucose and 50.0 micromoles of succinic acid was added to the incubating mixture and the incubation was continued for 60 minutes more. Test compounds were dissolved in dimethyl sulfoxide (DMSO) and added to the incubating mixture with the fat pad. […] The concentration of the test compound in the liquid medium was 10^-4 M. The incubation was carried out with paired fat pads; the contralateral fat pad from the same rat served as the untreated control.
After incubation, the fat pads were washed in two 5 milliliter aliquots of normal saline and extracted twice with 20 milliliters of chloroform:methanol (2:1) by vigorous shaking for 60 minutes. The extracts were combined and brought to volume with fresh organic solvent in a 50 milliliter volumetric flask containing 1 milliliter of 3N hydrochloric acid. A 5 milliliter aliquot of this mixture was transferred into a 20 milliliter scintillator vial and evaporated to dryness (50° C) to remove traces of acetic acid. To the vials were added 17 ml of scintillator solution consisting of 0.3% diphenyloxazole and 0.01% of 1,4-bis(2,5-phenyloxazolyl)benzene in a solvent of 23% ethanol in toluene. Radioactivity was measured by liquid scintillation counting.
Table II indicates the percent inhibition of incorporation of the acetate into long chain fatty acids--a measure of inhibition of lipogenesis.

rats = test: Rats fed Compound 1 in the diet; lipogenesis by weighing fat pads; format: in vivo; details: Compound 1 in diet, compared to control rats

## OCCNc1nc(N2CCOCC2)nc(C(Cl)(Cl)Cl)n1 [Compound 1]
Swine adipose tissue
  inhibition at 100 µg/mL: 63%
swine
  symptom of toxicity: No symptom of toxicity due to the test compound was noted
swine; day 13 (one week off the drug)
  effect on lipogenesis in adipose tissue biopsy samples: significantly reduced lipogenesis
[1]
  inhibition at 100 µM: 57%
rats
  inhibition of lipogenesis, by weighing fat pads on sacrifice: lipogenesis had been inhibited to a significant extent

## OCCCNc1nc(N2CCOCC2)nc(C(Cl)(Cl)Cl)n1 [Compound 2]
Swine adipose tissue
  inhibition at 100 µg/mL: 59%

## CC(=O)OCCNc1nc(N2CCOCC2)nc(C(Cl)(Cl)Cl)n1 [Compound 3]
Swine adipose tissue
  inhibition at 100 µg/mL: 33%

## CC(O)CNc1nc(N2CCOCC2)nc(C(Cl)(Cl)Cl)n1 (stereo not shown) [Compound 4]
Swine adipose tissue
  inhibition at 100 µg/mL: 44%

## COCCCNc1nc(NCCO)nc(C(Cl)(Cl)Cl)n1 [Compound 5]
Swine adipose tissue
  inhibition at 100 µg/mL: 44%

## CC(C)OCCCNc1nc(N(CCO)CCO)nc(C(Cl)(Cl)Cl)n1 [Compound 6]
Swine adipose tissue
  inhibition at 100 µg/mL: 62%

## CN(CCO)c1nc(N2CCOCC2)nc(C(Cl)(Cl)Cl)n1 [Compound 7]
Swine adipose tissue
  inhibition at 100 µg/mL: 32%

## CN(CCO)c1nc(NCCO)nc(C(Cl)(Cl)Cl)n1 [Compound 8]
Swine adipose tissue
  inhibition at 100 µg/mL: 58%

## CN(C)C(=O)OCCNc1nc(N2CCOCC2)nc(C(Cl)(Cl)Cl)n1 [Compound 9]
Swine adipose tissue
  inhibition at 100 µg/mL: 65%

## COC(=O)CCC(=O)OCCNc1nc(N2CCOCC2)nc(C(Cl)(Cl)Cl)n1 [Compound 10]
Swine adipose tissue
  inhibition at 100 µg/mL: 43%

## CC(=O)N1CCN(c2nc(NCC(C)O)nc(C(Cl)(Cl)Cl)n2)CC1 (stereo not shown) [Compound 11]
Swine adipose tissue
  inhibition at 100 µg/mL: 72%

## CC(O)CNc1nc(N2CCN(C(=O)Nc3ccccc3)CC2)nc(C(Cl)(Cl)Cl)n1 (stereo not shown) [Compound 12]
Swine adipose tissue
  inhibition at 100 µg/mL: 29%

## CC(O)CNc1nc(N2CCN(C(=O)CCC(=O)O)CC2)nc(C(Cl)(Cl)Cl)n1 (stereo not shown) [Compound 13]
Swine adipose tissue
  inhibition at 100 µg/mL: 21%
[1]; same procedure as Table II
  inhibition of acetate incorporation (in words): not to inhibit acetate incorporation

## CC(=O)NCCNc1nc(N2CCOCC2)nc(C(Cl)(Cl)Cl)n1 [Compound 14]
Swine adipose tissue
  inhibition at 100 µg/mL: 66%

## O=C(O)CCNc1nc(N2CCOCC2)nc(C(Cl)(Cl)Cl)n1 [Compound 15]
Swine adipose tissue
  inhibition at 100 µg/mL: 44%
[1]
  inhibition at 100 µM: 29%

## CCNc1nc(NCCC(=O)N2CCOCC2)nc(C(Cl)(Cl)Cl)n1 [Compound 16]
Swine adipose tissue
  inhibition at 100 µg/mL: 38%

## CC(C)(CO)Nc1nc(NCCCN2CCOCC2)nc(C(Cl)(Cl)Cl)n1 [Compound 17]
Swine adipose tissue
  inhibition at 100 µg/mL: 43%

## OCCNc1nc(N2CCCC2)nc(C(Cl)(Cl)Cl)n1 [Compound 18]
Swine adipose tissue
  inhibition at 100 µg/mL: 63%

## O=C(NCCO)N1CCN(c2nc(NCCO)nc(C(Cl)(Cl)Cl)n2)CC1 [Compound 19]
Swine adipose tissue
  inhibition at 100 µg/mL: 75%
[1]
  inhibition at 100 µM: 44%

## CN1CCN(c2nc(NCCO)nc(C(Cl)(Cl)Cl)n2)CC1 [Compound 20]
Swine adipose tissue
  inhibition at 100 µg/mL: 27%
[1]
  inhibition at 100 µM: 56%

## OCCNc1nc(N2CCNCC2)nc(C(Cl)(Cl)Cl)n1 [Compound 21]
[1]
  inhibition at 100 µM: 65%

## CC(O)CNc1nc(N2CCNCC2)nc(C(Cl)(Cl)Cl)n1 (stereo not shown) [Compound 22]
[1]
  inhibition at 100 µM: 30%

## CCNc1nc(N2CCCCC2)nc(C(Cl)(Cl)Cl)n1 [Compound 33]
[1]
  inhibition at 100 µM: 31%
